Patent US20180284095A1, “BIOMARKERS ASSOCIATED WITH LSD1 INHIBITORS AND USES THEREOF” (Oryzon Genomics, S.A., priority 2015, published 2018)

Experiments:
S100A8 = test: Microarray gene expression in brain, spleen and liver of Hsd:Athymic Nude-Foxn1nu mice (Example 7); format: in vivo, mouse
Experimental: (§1) Total RNA was extracted from samples using the RNeasy extraction kit (Qiagen). The quality and concentration of the RNA was analyzed using the Agilent 2100 bioanalyzer and NanoDrop™ ND-1000 (Thermo Scientific). Samples with RNA integrity number (RIN)<6.0 were discarded. Total RNA (0.5 μg) amplification and labelling with Cy3 or Cy5 was carried out using the Eberwein mRNA amplification procedure (Van Gelder et al, Proc Natl Acad Sci USA 1990, 87:1663-1667) employing the MessageAmp™ aRNA amplification kit from Ambion (Applied Biosystems) following the manufacturer's instructions with minor modifications. As hybridization controls, plant mRNAs were transcribed from a plasmid containing the Zea mays Xet (xyloglucan endo-transglycosylase) cDNA and from a plasmid containing the Zea mays Zmmyb42 cDNA, independently prepared Cy3 and Cy5 labelled aRNA from these two RNAs using the Eberwein mRNA amplification procedure (as disclosed in Cerdà et al, Gen Comp Endocrinol 2008, 156:470-481).
(§2) The Cy3- and Cy5-labelled cRNAs and spikes were combined and hybridized to the microarray described in Example 2.6 for 17 h at 60° C. using Agilent's gaskets G2534-60002, G2534A hybridization chambers and DNA Hybridization Oven G2545A, according to the manufacturer's instructions. More specifically, equal amounts of Cy3 and Cy5 labeled Xet aRNA as well as equal amounts of Cy3 and Cy5 labeled Zmmyb42 aRNA were spiked into each mixture hybridized to the array. Arrays were washed and raw data were obtained using Agilent's DNA Microarray Scanner G2505B and Feature Extraction software (v10.1). The raw fluorescence intensity data were processed using applicant's proprietary software, and consists in the following operations:
(§3) Data normalization was carried out by an improved version of the nonlinear Q-splines normalization method (Workman et al., Genome Biol 2002, 3(9):research0048.1-0048.16). Normalization results were presented graphically as MA plots, as first described by Dudoit et al (Dudoit et al, Statistica Sinica, 2002, 12:111-139). Each point corresponds to a probe of the DNA array. M values (vertical axis) are the log-differential expression ratios. A values (horizontal axis) are the log-intensities of the spots. M and A are calculated from the Cy5 and Cy3 intensity values as of each spot. The DNA Array data is normalized using an improved version of non-linear Q-Splines normalization described by Workman et al., Genome Biol 2002, 3(9):research0048.1-0048.16. This process is useful to correct the deviation of the M values from the statistical assumption that most of the spots have M=0 in MA plots. The method allows the adjustment of all M values to form a cloud centered at M=0 in all intensity ranges. The data used to calculate the normalization fitting curve is the totality of the raw measurement dataset, excluding the signals for the probes for the spiked-in plant RNA controls and negative controls. In order to be able to normalize properly the data among all the experiments, the probe-set must include an important group of genes that should have no change (M=0) in the experiment. The normalization function is then applied to all the data, including controls.
(§4) Normalized and log-transformed data were used to calculate log 2 (sample/control) and Fold Change (FC) values. No background subtraction was applied to the signal intensity values during data processing, permitting robust selection of differentially expressed genes with low expression levels at the cost of potential sub-estimation of change when intensity levels are close to the array background level.
(§5) Powered Compound 3, 4 or 5 was dissolved in a 20% solution of 2-hydroxypropyl-R-cyclodextrin in water at the appropriate concentrations, vortexed and placed in an ultrasonic bath for 5 minutes.
(§6) Hsd:Athymic Nude-Foxn1nu mice were maintained in air- and temperature-controlled cages with regular supply of water and food. A maximum of 6 mice/cage were raised. […]

S100A9 = test: as above; format: in vivo, mouse
Experimental: as §1, §2, §3, §4, §5, §6

N[C@H]1CCN(CCN[C@H]2C[C@@H]2c2ccc(-c3cccc(C(F)(F)F)c3)cc2)C1 (racemic) [Compound 5, (S)-1-(2-(((trans)-2-(3′-(trifluoromethyl)-[1,1′-biphenyl]-4-yl)cyclopropyl)amino)ethyl)pyrrolidin-3-amine]
Hybridization signal sample_Cy5 (S100A8; BRAIN, S100A8, 3.3 mg/kg): 268.162
log2 (sample/control) (S100A8; BRAIN, S100A8, 3.3 mg/kg vs VEH): −0.6462
Hybridization signal sample_Cy5 (S100A8; BRAIN, S100A8, 11 mg/kg): 38.4889
log2 (sample/control) (S100A8; BRAIN, S100A8, 11 mg/kg vs VEH): −3.263
Hybridization signal sample_Cy5 (S100A8; BRAIN, S100A8, 33 mg/kg): 36.6941
log2 (sample/control) (S100A8; BRAIN, S100A8, 33 mg/kg vs VEH): −3.57
Hybridization signal sample_Cy5 (S100A8; LIVER, S100A8, 3.3 mg/kg): 315.439
log2 (sample/control) (S100A8; LIVER, S100A8, 3.3 mg/kg vs VEH): −0.4761
Hybridization signal sample_Cy5 (S100A8; LIVER, S100A8, 11 mg/kg): 73.2915
log2 (sample/control) (S100A8; LIVER, S100A8, 11 mg/kg vs VEH): −2.357
Hybridization signal sample_Cy5 (S100A8; LIVER, S100A8, 33 mg/kg): 57.5133
log2 (sample/control) (S100A8; LIVER, S100A8, 33 mg/kg vs VEH): −2.909
Hybridization signal sample_Cy5 (S100A8; SPLEEN, S100A8, 3.3 mg/kg): 4802.3
log2 (sample/control) (S100A8; SPLEEN, S100A8, 3.3 mg/kg vs VEH): −1.65
Hybridization signal sample_Cy5 (S100A8; SPLEEN, S100A8, 11 mg/kg): 382.984
log2 (sample/control) (S100A8; SPLEEN, S100A8, 11 mg/kg vs VEH): −5.38
Hybridization signal sample_Cy5 (S100A8; SPLEEN, S100A8, 33 mg/kg): 408.877
log2 (sample/control) (S100A8; SPLEEN, S100A8, 33 mg/kg vs VEH): −5.243
Hybridization signal sample_Cy5 (S100A9; BRAIN, S100A9, 3.3 mg/kg): 746.537
log2 (sample/control) (S100A9; BRAIN, S100A9, 3.3 mg/kg vs VEH): −0.9635
Hybridization signal sample_Cy5 (S100A9; BRAIN, S100A9, 11 mg/kg): 60.5479
log2 (sample/control) (S100A9; BRAIN, S100A9, 11 mg/kg vs VEH): −4.54
Hybridization signal sample_Cy5 (S100A9; BRAIN, S100A9, 33 mg/kg): 58.3941
log2 (sample/control) (S100A9; BRAIN, S100A9, 33 mg/kg vs VEH): −4.697
Hybridization signal sample_Cy5 (S100A9; LIVER, S100A9, 3.3 mg/kg): 987.357
log2 (sample/control) (S100A9; LIVER, S100A9, 3.3 mg/kg vs VEH): −0.5728
Hybridization signal sample_Cy5 (S100A9; LIVER, S100A9, 11 mg/kg): 170.929
log2 (sample/control) (S100A9; LIVER, S100A9, 11 mg/kg vs VEH): −3.056
Hybridization signal sample_Cy5 (S100A9; LIVER, S100A9, 33 mg/kg): 113.971
log2 (sample/control) (S100A9; LIVER, S100A9, 33 mg/kg vs VEH): −3.811
Hybridization signal sample_Cy5 (S100A9; SPLEEN, S100A9, 3.3 mg/kg): 13461.8
log2 (sample/control) (S100A9; SPLEEN, S100A9, 3.3 mg/kg vs VEH): −1.719
Hybridization signal sample_Cy5 (S100A9; SPLEEN, S100A9, 11 mg/kg): 963.073
log2 (sample/control) (S100A9; SPLEEN, S100A9, 11 mg/kg vs VEH): −5.625
Hybridization signal sample_Cy5 (S100A9; SPLEEN, S100A9, 33 mg/kg): 944.034
log2 (sample/control) (S100A9; SPLEEN, S100A9, 33 mg/kg vs VEH): −5.685
